Experimental data taken from PubChem BioAssay AID330 (DTP/NCI, 2004).
Where “and” joins values, the source holds several entries; their conditions need not be identical. Identical values can stand only once. Inconclusive results and toxic doses are left out.

Tested on: P388 leukemia ip, CD2F1 mice, survival T/C
Assay: NCI In Vivo Anticancer Drug Screen. Data for tumor model P388 Leukemia (intraperitoneal) in CD2F1 (CDF1) mice
Details: endpoint: median survival time, higher = longer survival
In short: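 Mice carrying the transplanted tumor received test compound or vehicle. Survival was recorded in each group, and the value is the treated-group measurement divided by that of the vehicle-treated control group.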

[1] = dose: 50.0 mg/kg/injection, schedule: Q01DX005 (ip), vehicle: saline with Tween-80
[2] = dose: 100.0 mg/kg/injection, schedule: Q01DX005 (ip), vehicle: saline with Tween-80
[3] = dose: 200.0 mg/kg/injection, schedule: Q01DX005 (ip), vehicle: saline with Tween-80
[4] = dose: 25.0 mg/kg/injection, schedule: Q01DX009 (ip), vehicle: saline
[5] = dose: 50.0 mg/kg/injection, schedule: Q01DX009 (ip), vehicle: saline
[6] = dose: 100.0 mg/kg/injection, schedule: Q01DX009 (ip), vehicle: saline
[7] = dose: 200.0 mg/kg/injection, schedule: Q01DX009 (ip), vehicle: saline
[8] = dose: 60.0 mg/kg/injection, schedule: Q01DX005 (ip), vehicle: saline with Tween-80
[9] = dose: 120.0 mg/kg/injection, schedule: Q01DX005 (ip), vehicle: saline with Tween-80
[10] = dose: 100.0 mg/kg/injection, schedule: Q01DX009 (ip), vehicle: saline with Tween-80
[11] = dose: 200.0 mg/kg/injection, schedule: Q01DX009 (ip), vehicle: saline with Tween-80
[12] = dose: 400.0 mg/kg/injection, schedule: Q01DX009 (ip), vehicle: saline with Tween-80
[13] = dose: 60.0 mg/kg/injection, schedule: Q01DX005 (ip), vehicle: saline
[14] = dose: 240.0 mg/kg/injection, schedule: Q01DX005 (ip), vehicle: saline
[15] = dose: 60.0 mg/kg/injection, schedule: Q01DX005 (ip), vehicle: Klucel (hydroxypropylcellulose) (HPC)
[16] = dose: 120.0 mg/kg/injection, schedule: Q01DX005 (ip), vehicle: Klucel (hydroxypropylcellulose) (HPC)
[17] = dose: 240.0 mg/kg/injection, schedule: Q01DX005 (ip), vehicle: Klucel (hydroxypropylcellulose) (HPC)
[18] = dose: 50.0 mg/kg/injection, schedule: Q01DX009 (ip), vehicle: Klucel (hydroxypropylcellulose) (HPC)
[19] = dose: 100.0 mg/kg/injection, schedule: Q01DX009 (ip), vehicle: Klucel (hydroxypropylcellulose) (HPC)
[20] = dose: 200.0 mg/kg/injection, schedule: Q01DX009 (ip), vehicle: Klucel (hydroxypropylcellulose) (HPC)

SMILES: CC[n+]1c([S-])nn(C)c1-c1cnccn1
- T/C [1]: 106 % of control
- T/C [2]: 108 % of control
- T/C [3]: 102 % of control

SMILES: CC(C)(C)c1cc(I)c(O)c(CN)c1
- T/C [4]: 123 % of control

SMILES: CN(c1ccc(Cc2ccc(N(C)S(C)(=O)=O)cc2)cc1)S(C)(=O)=O
- T/C (dose: 50.0 mg/kg/injection, schedule: Q04DX002 (ip), vehicle: saline with Tween-80): 110 % of control
- T/C (dose: 100.0 mg/kg/injection, schedule: Q04DX002 (ip), vehicle: saline with Tween-80): 101 % of control
- T/C (dose: 200.0 mg/kg/injection, schedule: Q04DX002 (ip), vehicle: saline with Tween-80): 94 % of control
- T/C (dose: 400.0 mg/kg/injection, schedule: Q04DX002 (ip), vehicle: saline with Tween-80): 92 % of control

SMILES: N#CC(C#N)=Cc1ccc(N2CCOCC2)cc1
- T/C [5]: 90 % of control
- T/C [6]: 97 % of control
- T/C [7]: 90 % of control

SMILES: Cc1ccc(Nc2ncnc3c2c(=O)n(C)c(=O)n3C)cc1
- T/C (dose: 30.0 mg/kg/injection, schedule: Q01DX005 (ip), vehicle: saline with Tween-80): 88 % of control
- T/C [8]: 90 % of control
- T/C [9]: 90 % of control

SMILES: COC(C(=O)C(O)C(C)O)C1Cc2cc3cc(OC4CC(OC5CC(O)C(O)C(C)O5)C(O)C(C)O4)c(C)c(O)c3c(O)c2C(=O)C1OC1CC(OC2CC(O)C(OC3CC(C)(O)C(O)C(C)O3)C(C)O2)C(O)C(C)O1 (stereo not given)
- T/C (dose: 0.06 mg/kg/injection, schedule: Q01DX009 (ip), vehicle: saline): 122 % of control
- T/C (dose: 0.13 mg/kg/injection, schedule: Q01DX001 (ip), vehicle: saline): 104 % of control
- T/C (dose: 0.13 mg/kg/injection, schedule: Q01DX009 (ip), vehicle: saline): 106 % of control
- T/C (dose: 0.25 mg/kg/injection, schedule: Q01DX001 (ip), vehicle: saline): 103 % of control
- T/C (dose: 0.25 mg/kg/injection, schedule: Q01DX009 (ip), vehicle: saline): 109 % of control
- T/C (dose: 0.5 mg/kg/injection, schedule: Q01DX001 (ip), vehicle: saline): 109 % of control
- T/C (dose: 0.5 mg/kg/injection, schedule: Q04DX003 (ip), vehicle: saline): 116 % of control
- T/C (dose: 2.0 mg/kg/injection, schedule: Q01DX009 (ip), vehicle: saline): 151 % of control

SMILES: Cc1ccc(S(=O)(=O)N=S(C)(C)=O)cc1
- T/C (dose: 0.1 mg/kg/injection, schedule: Q01DX009 (ip), vehicle: saline with Tween-80): 104 % of control
- T/C (dose: 0.2 mg/kg/injection, schedule: Q01DX009 (ip), vehicle: saline with Tween-80): 105 % of control and 108 % of control
- T/C (dose: 0.39 mg/kg/injection, schedule: Q01DX009 (ip), vehicle: saline with Tween-80): 99 % of control and 101 % of control
- T/C (dose: 0.78 mg/kg/injection, schedule: Q01DX009 (ip), vehicle: saline with Tween-80): 107 % of control
- T/C (dose: 0.79 mg/kg/injection, schedule: Q01DX009 (ip), vehicle: saline with Tween-80): 98 % of control
- T/C (dose: 1.56 mg/kg/injection, schedule: Q01DX009 (ip), vehicle: saline with Tween-80): 108 % of control and 120 % of control and 96 % of control
- T/C (dose: 6.25 mg/kg/injection, schedule: Q01DX009 (ip), vehicle: saline with Tween-80): 100 % of control and 105 % of control and 91 % of control
- T/C (dose: 12.5 mg/kg/injection, schedule: Q01DX009 (ip), vehicle: saline with Tween-80): 104 % of control and 88 % of control
- T/C (dose: 25.0 mg/kg/injection, schedule: Q01DX009 (ip), vehicle: saline with Tween-80): 97 % of control

SMILES: CC1C(=O)CCC2(C)CCC(C)(C)CC12 (stereo not given)
- T/C [10]: 91 % of control
- T/C [11]: 104 % of control
- T/C [12]: 95 % of control

SMILES: CN=C(N)N/N=C/c1c2ccccc2c(Cl)c2ccccc12
- T/C (dose: 25.0 mg/kg/injection, schedule: Q04DX002 (ip), vehicle: saline with Tween-80): 114 % of control

SMILES: N#CC(C(=O)C(=O)Nc1cccc(C(F)(F)F)c1)c1ccccc1Cl (stereo not given)
- T/C [8]: 102 % of control
- T/C [9]: 97 % of control
- T/C (dose: 240.0 mg/kg/injection, schedule: Q01DX005 (ip), vehicle: saline with Tween-80): 99 % of control

SMILES: COc1nc(NC2OC(CO)C(O)C(O)C2O)c(C=O)c(=O)n1C (stereo not given)
- T/C [13]: 93 % of control
- T/C (dose: 120.0 mg/kg/injection, schedule: Q01DX005 (ip), vehicle: saline): 100 % of control
- T/C [14]: 99 % of control

SMILES: O=C1CCCCC1C(=O)C(F)(F)F (stereo not given)
- T/C (dose: 50.0 mg/kg/injection, schedule: Q01DX009 (ip), vehicle: saline + Tween-80 + alcohol): 116 % of control
- T/C (dose: 100.0 mg/kg/injection, schedule: Q01DX009 (ip), vehicle: saline + Tween-80 + alcohol): 106 % of control

SMILES: COC1=C(C)C(=O)C2=C(C1=O)C(CO)N1C(C#N)C3CC4C(C1C2N1CCOC41)N3C (stereo not given)
- T/C (dose: 0.15 mg/kg/injection, schedule: Q01DX005 (ip), vehicle: acid diluted with saline): 111 % of control and 117 % of control
- T/C (dose: 0.3 mg/kg/injection, schedule: Q01DX005 (ip), vehicle: acid diluted with saline): 113 % of control
- T/C (dose: 0.4 mg/kg/injection, schedule: Q01DX005 (ip), vehicle: saline + alcohol): 152 % of control
- T/C (dose: 0.6 mg/kg/injection, schedule: Q01DX005 (ip), vehicle: acid diluted with saline): 123 % of control
- T/C (dose: 0.8 mg/kg/injection, schedule: Q01DX005 (ip), vehicle: saline + alcohol): 154 % of control

SMILES: CNS(=O)(=O)c1ccc2c(c1)[nH]c(=S)n2C
- T/C [10]: 95 % of control
- T/C [11]: 90 % of control
- T/C [12]: 90 % of control

SMILES: Cc1c(C)n2c(=O)n(-c3ccccc3)c(=O)n2c1=O
- T/C [15]: 99 % of control
- T/C [16]: 99 % of control
- T/C [17]: 99 % of control

SMILES: CC(O)C(O)C(O)C(O)C=O (stereo not given)
- T/C [13]: 109 % of control
- T/C [14]: 100 % of control

SMILES: NC(Cc1ccc2ccccc2c1Br)C(=O)O (stereo not given)
- T/C [18]: 99 % of control
- T/C [19]: 99 % of control
- T/C [20]: 97 % of control

SMILES: COc1cc(NC(=O)CNC(=O)CNC(=O)C(N)CC(C)C)cc2ccccc12 (stereo not given)
- T/C (dose: 50.0 mg/kg/injection, schedule: Q01DX005 (ip), vehicle: Klucel (hydroxypropylcellulose) (HPC)): 100 % of control
- T/C (dose: 100.0 mg/kg/injection, schedule: Q01DX005 (ip), vehicle: Klucel (hydroxypropylcellulose) (HPC)): 96 % of control
- T/C (dose: 200.0 mg/kg/injection, schedule: Q01DX005 (ip), vehicle: Klucel (hydroxypropylcellulose) (HPC)): 100 % of control

SMILES: COC(=O)/C(=C/c1c[nH]c2ccccc12)NC=O
- T/C [15]: 97 % of control
- T/C [16]: 97 % of control
- T/C [17]: 92 % of control

SMILES: CC1CN2C(=O)NC(=O)C1(c1ccccc1)C2=O (stereo not given)
- T/C [18]: 100 % of control
- T/C [19]: 93 % of control
- T/C [20]: 97 % of control

SMILES: Cc1cn2ccccc2c1-c1ccccc1
- T/C [1]: 111 % of control
- T/C [2]: 108 % of control
- T/C [3]: 106 % of control

SMILES: CCN(CC)CCN(C)C(=O)C(O)(c1ccccc1)c1ccccc1
- T/C [4]: 100 % of control
- T/C [5]: 104 % of control
- T/C [6]: 104 % of control
- T/C [7]: 100 % of control

SMILES: Clc1ccc(SCc2csc(-c3ccc(Cl)cc3)n2)cc1
- T/C [5]: 104 % of control
- T/C [6]: 111 % of control
- T/C [7]: 104 % of control

SMILES: Nc1ccccc1SC1CC(=O)N(c2ccccc2Cl)C1=O (stereo not given)
- T/C (dose: 50.0 mg/kg/injection, schedule: Q01DX009 (ip), vehicle: saline with Tween-80): 90 % of control
- T/C [10]: 90 % of control and 95 % of control
- T/C (dose: 100.0 mg/kg/injection, schedule: Q04DX003 (ip), vehicle: saline with Tween-80): 90 % of control
- T/C [11]: 95 % of control
- T/C (dose: 200.0 mg/kg/injection, schedule: Q04DX003 (ip), vehicle: saline with Tween-80): 90 % of control
- T/C (dose: 400.0 mg/kg/injection, schedule: Q04DX003 (ip), vehicle: saline with Tween-80): 95 % of control

SMILES: CCOC(=O)CCCCCOCOC
- T/C (dose: 100.0 mg/kg/injection, schedule: Q01DX001 (ip), vehicle: saline with Tween-80): 106 % of control
- T/C (dose: 200.0 mg/kg/injection, schedule: Q01DX001 (ip), vehicle: saline with Tween-80): 98 % of control
- T/C (dose: 400.0 mg/kg/injection, schedule: Q01DX001 (ip), vehicle: saline with Tween-80): 106 % of control

SMILES: CCCNC(=O)NC1CC(=O)N(CCC)C1=O (stereo not given)
- T/C [1]: 93 % of control
- T/C [2]: 100 % of control
- T/C [3]: 102 % of control
